The results in this text go back to patent publication US8461328B2, “Tricyclic heterocyclic compounds, compositions and methods of use thereof” (Genentech, Inc., priority 2010, dated 2013).

SMILES strings stand for the structures.

Holding throughout (format): biochemical
The target of one experiment is T1, JAK1 (Homo sapiens, UniProt P23458).
T1 construct: made in house; host or cells: SF9 insect cells (baculovirus)
Nature of the experiment: JAK1 inhibition (Table 4). Particulars: read-out: JAK1 Ki.

Another experiment deals with T2, TYK2 (Homo sapiens, UniProt P29597).
T2 construct: made in house; host or cells: SF9 insect cells (baculovirus)
T2 sequence (P29597 873-1187): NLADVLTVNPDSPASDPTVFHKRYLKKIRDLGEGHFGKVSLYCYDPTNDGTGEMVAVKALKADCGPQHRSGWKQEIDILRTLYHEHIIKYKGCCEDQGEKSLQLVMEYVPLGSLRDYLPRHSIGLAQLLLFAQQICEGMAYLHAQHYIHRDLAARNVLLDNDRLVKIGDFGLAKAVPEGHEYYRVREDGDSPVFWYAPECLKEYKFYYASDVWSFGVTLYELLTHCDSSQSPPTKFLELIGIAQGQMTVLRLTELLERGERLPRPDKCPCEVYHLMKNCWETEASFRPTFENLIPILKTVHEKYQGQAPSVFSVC
Briefly: TYK2 inhibition (Table 4).

The target in the next experiment is T3, JAK2 (Homo sapiens, UniProt O60674).
T3 construct: made in house; host or cells: SF9 insect cells (baculovirus)
Nature of the experiment: JAK2 inhibition (Table 4). Particulars: read-out: JAK2 Ki.

The next experiment has as its target T4, JAK3 (Homo sapiens, UniProt P52333).
T4 construct: made in house; host or cells: SF9 insect cells (baculovirus)
Nature of the experiment: JAK3 inhibition (Table 4). Particulars: read-out: JAK3 Ki.

T3 sequence (O60674 812-1132): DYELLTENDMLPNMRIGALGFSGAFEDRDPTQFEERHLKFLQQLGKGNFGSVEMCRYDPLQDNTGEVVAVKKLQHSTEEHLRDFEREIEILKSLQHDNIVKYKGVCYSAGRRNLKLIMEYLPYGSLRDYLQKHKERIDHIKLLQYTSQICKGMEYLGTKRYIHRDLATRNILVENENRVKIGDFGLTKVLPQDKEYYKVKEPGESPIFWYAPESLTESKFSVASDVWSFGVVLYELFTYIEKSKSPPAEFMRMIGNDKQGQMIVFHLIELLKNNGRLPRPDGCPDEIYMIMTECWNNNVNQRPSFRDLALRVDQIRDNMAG
T1 sequence (P23458 852-1154): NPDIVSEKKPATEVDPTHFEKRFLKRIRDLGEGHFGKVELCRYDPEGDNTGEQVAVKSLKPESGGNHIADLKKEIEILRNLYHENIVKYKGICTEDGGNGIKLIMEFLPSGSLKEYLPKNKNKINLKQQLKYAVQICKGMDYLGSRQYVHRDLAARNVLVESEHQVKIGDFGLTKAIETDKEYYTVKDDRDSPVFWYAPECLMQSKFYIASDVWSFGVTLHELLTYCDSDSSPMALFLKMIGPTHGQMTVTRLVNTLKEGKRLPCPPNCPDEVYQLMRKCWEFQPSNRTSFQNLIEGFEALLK
T4 sequence (P52333 783-1124): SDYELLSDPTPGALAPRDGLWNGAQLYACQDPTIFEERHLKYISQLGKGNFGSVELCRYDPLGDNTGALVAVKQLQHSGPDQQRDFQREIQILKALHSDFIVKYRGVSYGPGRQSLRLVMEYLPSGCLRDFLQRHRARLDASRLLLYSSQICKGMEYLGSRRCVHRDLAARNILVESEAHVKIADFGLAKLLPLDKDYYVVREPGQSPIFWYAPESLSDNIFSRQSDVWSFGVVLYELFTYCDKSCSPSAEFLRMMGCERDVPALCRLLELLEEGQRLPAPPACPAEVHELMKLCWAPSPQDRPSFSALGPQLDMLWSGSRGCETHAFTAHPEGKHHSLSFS

With `CC(C)N1CCC(n2cnc3cnc4[nH]ccc4c32)CC1` [Example 549, 1-(1-Isopropyl-piperidin-4-yl)-1,6-dihydro-1,3,5,6-tetraaza-as-indacene], the Ki came to 92.4 nM on JAK1, 809 nM on TYK2, 182 nM at JAK2 and 3490 nM on JAK3.

As for `CC(=O)N1CCC(N[C@H]2CC[C@H](n3cnc4cnc5[nH]ccc5c43)CC2)CC1` [Example 555, trans 1-{4-[4-(6H-1,3,5,6-Tetraaza-as-indacen-1-yl)-cyclohexylamino]-piperidin-1-yl}-ethanone], the Ki was determined as 33 nM on JAK1, 302 nM at TYK2, 276 nM at JAK2 and 491 nM at JAK3.

As for `CC(C)(C)OC(=O)N1CCC[C@@H]1CN[C@H]1CC[C@H](n2cnc3cnc4[nH]ccc4c32)CC1` [Example 556, trans (R)-2-{[4-(6H-1,3,5,6-Tetraaza-as-indacen-1-yl)-cyclohexylamino]-methyl}-pyrrolidine-1-carboxylic acid tert-butyl ester], the Ki on JAK1 amounted to 60.4 nM; on TYK2 it was 1460 nM; at JAK2, 190 nM; on JAK3 it was 894 nM.

As to `CC(C)(C)OC(=O)N1CC(CN[C@H]2CC[C@H](n3cnc4cnc5[nH]ccc5c43)CC2)C1` [Example 557, trans 3-{[4-(6H-1,3,5,6-Tetraaza-as-indacen-1-yl)-cyclohexylamino]-methyl}-azetidine-1-carboxylic acid tert-butyl ester], the Ki at JAK1 was 21.4 nM; on TYK2 it was 443 nM; at JAK2, 136 nM; at JAK3, 310 nM.

As to `CC(C)(C)OC(=O)N1CCC(N[C@H]2CC[C@H](n3cnc4cnc5[nH]ccc5c43)CC2)CC1` [Example 558, trans 4-[4-(6H-1,3,5,6-Tetraaza-as-indacen-1-yl)-cyclohexylamino]-piperidine-1-carboxylic acid tert-butyl ester], the Ki turned out to be 6.94 nM at JAK1, 39.2 nM at TYK2, 60.9 nM on JAK2 and 110 nM on JAK3.

Take `CC(C)(C)OC(=O)N1CCCC[C@@H]1CN[C@H]1CC[C@H](n2cnc3cnc4[nH]ccc4c32)CC1` [Example 563, trans (R)-2-{[4-(6H-1,3,5,6-Tetraaza-as-indacen-1-yl)-cyclohexylamino]-methyl}-piperidine-1-carboxylic acid tert-butyl ester]: the Ki came out at 91 nM on JAK1, 3320 nM on TYK2, 611 nM on JAK2 and 2360 nM on JAK3.

As for `CC(C)(C)OC(=O)N1CCC[C@H](CN[C@H]2CC[C@H](n3cnc4cnc5[nH]ccc5c43)CC2)C1` [Example 565, trans (R)-3-{[4-(6H-1,3,5,6-Tetraaza-as-indacen-1-yl)-cyclohexylamino]-methyl}-piperidine-1-carboxylic acid tert-butyl ester], the Ki at JAK1 came out at 90.8 nM; at TYK2, 1950 nM; at JAK2, 397 nM; on JAK3 it was 1050 nM.

On to `CC(C)(C)OC(=O)N1CCC[C@@H](CN[C@H]2CC[C@H](n3cnc4cnc5[nH]ccc5c43)CC2)C1` [Example 566, trans (S)-3-{[4-(6H-1,3,5,6-Tetraaza-as-indacen-1-yl)-cyclohexylamino]-methyl}-piperidine-1-carboxylic acid tert-butyl ester], for which the Ki at JAK1 was determined as 20.5 nM; at TYK2, 260 nM; on JAK2, 186 nM; at JAK3, 498 nM.

Regarding `N#CCN1CCC(N[C@H]2CC[C@H](n3cnc4cnc5[nH]ccc5c43)CC2)CC1` [Example 568, trans {4-[4-(6H-1,3,5,6-Tetraaza-as-indacen-1-yl)-cyclohexylamino]-piperidin-1-yl}-acetonitrile], the Ki on JAK1 stood at 2.91 nM; on TYK2, 65.2 nM; at JAK2 it was 48.6 nM; at JAK3, 59.8 nM.

Regarding `CC(C)CN[C@H]1CC[C@H](n2cnc3cnc4[nH]ccc4c32)CC1` [Example 569, trans Isobutyl-[4-(6H-1,3,5,6-tetraaza-as-indacen-1-yl)-cyclohexyl]-amine], the Ki on JAK1 amounted to 12.7 nM; on TYK2 it was 254 nM; at JAK2, 95.8 nM; at JAK3, 448 nM.

Regarding `O=C(N[C@H]1CC[C@H](n2cnc3cnc4[nH]ccc4c32)CC1)c1ccncc1` [Example 570, trans N-[4-(6H-1,3,5,6-Tetraaza-as-indacen-1-yl)-cyclohexyl]-isonicotinamide], the Ki on JAK1 was 11.2 nM; on TYK2, 77.7 nM; at JAK2, 10 nM; at JAK3, 116 nM.

`O=C(N[C@H]1CC[C@H](n2cnc3cnc4[nH]ccc4c32)CC1)C1CC1` [Example 572, trans Cyclopropanecarboxylic acid [4-(6H-1,3,5,6-tetraaza-as-indacen-1-yl)-cyclohexyl]-amide]: the Ki at JAK1 was found to be 11.6 nM; on TYK2 it was 119 nM; at JAK2, 27 nM; on JAK3 it was 201 nM.

For the molecule `COCCC(=O)N[C@H]1CC[C@H](n2cnc3cnc4[nH]ccc4c32)CC1` [Example 573, trans 3-Methoxy-N-[4-(6H-1,3,5,6-tetraaza-as-indacen-1-yl)-cyclohexyl]-propionamide], the Ki at JAK1 was 4.62 nM; on TYK2 it was 91.5 nM; on JAK2 it was 10.7 nM; on JAK3 it was 69.5 nM.

As for `Cn1cncc1CN[C@H]1CC[C@H](n2cnc3cnc4[nH]ccc4c32)CC1` [Example 575, trans (3-Methyl-3H-imidazol-4-ylmethyl)-[4-(6H-1,3,5,6-tetraaza-as-indacen-1-yl)-cyclohexyl]-amine], the Ki on JAK1 was found to be 7.17 nM; on TYK2 it was 44.7 nM; at JAK2, 34 nM; at JAK3 it was 206 nM.

In the case of `CC1(n2cnc3cnc4[nH]ccc4c32)CCN(C(=O)CC#N)CC1` [Example 579, 3-[4-Methyl-4-(6H-1,2,3,5,6-tetraaza-as-indacen-1-yl)-piperidin-1-yl]-3-oxo-propionitrile], the Ki on JAK1 was 106 nM; on TYK2, 329 nM; at JAK2 it was 483 nM; on JAK3 it was 1360 nM.

In the case of `Cc1nc2cnc3[nH]ccc3c2n1C1(C)CCN(S(C)(=O)=O)CC1` [Example 580, 1-(1-Methanesulfonyl-4-methyl-piperidin-4-yl)-2-methyl-1,6-dihydro-1,2,3,5,6-tetraaza-as-indacene], the inhibition constant (Ki) at JAK1 was 1.45 nM; at TYK2, 41.3 nM; on JAK2 it was 12.8 nM; at JAK3, 58.5 nM.

As for `Cc1nc2cnc3[nH]ccc3c2n1C1(C)CCN(CCC#N)CC1` [Example 581, 3-[4-Methyl-4-(2-methyl-6H-1,2,3,5,6-tetraaza-as-indacen-1-yl)-piperidin-1-yl]-propionitrile], the Ki on JAK1 amounted to 26.8 nM; at TYK2, 275 nM; at JAK2, 114 nM; on JAK3, 280 nM.

`CC1(n2nnc3cnc4[nH]ccc4c32)CCN(CCC#N)CC1` [Example 582, 3-[4-Methyl-4-(6H-1,2,3,5,6-pentaaza-as-indacen-1-yl)-piperidin-1-yl]-propionitrile]: the inhibition constant (Ki) stood at 102 nM at JAK1, 1050 nM on TYK2, 364 nM at JAK2 and 592 nM at JAK3.

In the case of `CC1(n2nnc3cnc4[nH]ccc4c32)CCN(S(C)(=O)=O)CC1` [Example 583, 1-(1-Methanesulfonyl-4-methyl-piperidine-4-yl)-1,6-dihydro-1,2,3,5,6-pentaaza-as-indacen-1-yl], the Ki was 4.36 nM at JAK1, 173 nM at TYK2, 31.9 nM on JAK2 and 363 nM on JAK3.

As to `CC1(n2nnc3cnc4[nH]ccc4c32)CCN(S(=O)(=O)c2cccnc2)CC1` [Example 584, 1-[4-Methyl-1-(pyridine-3-sulfonyl)-piperidin-4-yl]-1,6-dihydro-1,2,3,5,6-pentaaza-as-indacene], the Ki on JAK1 stood at 37 nM; on TYK2, 454 nM; at JAK2, 105 nM; at JAK3, 1320 nM.

With `C[C@@H](O)c1nc2cnc3[nH]ccc3c2n1C1(C)CCN(S(C)(=O)=O)CC1` [Example 585, (R)-1-[1-(1-Methanesulfonyl-4-methyl-piperidinyl)-1,6-dihydro-1,2,3,5,6-tetraaza-as-indacen-2-yl]-ethanol], the Ki came out at 9.46 nM on JAK1, 67.3 nM on TYK2, 63.4 nM on JAK2 and 88.3 nM on JAK3.

Consider `CC(C)(C#N)CN1CCC(n2cnc3cnc4[nH]ccc4c32)CC1` [Example 586, 2,2-Dimethyl-3-[4-(6H-1,2,3,5,6-tetraaza-as-indacen-1-yl)-piperidin-1-yl]-propionitrile], for which the Ki is 1.09 nM at JAK1, 9.73 nM on TYK2, 1.6 nM on JAK2 and 23.3 nM on JAK3.

In the case of `Cc1nc2cnc3[nH]ccc3c2n1C1CCN(CC(F)(F)F)CC1` [Example 587, 2-Methyl-1-[1-(2,2,2-trifluoro-ethyl)-piperidin-4-yl]-1,6-dihydro-1,2,3,5,6-tetraaza-as-indacene], the Ki at JAK1 was determined as 0.61 nM; at TYK2 it was 8.02 nM; on JAK2 it was 2.16 nM; on JAK3, 8.35 nM.

The Ki is a measure of affinity in units of concentration, obtained from inhibition or displacement.
